Results taken from ChEMBL document CHEMBL3272039, “Potenial antitumor agents. 28. Deoxyribonucleic acid polyintercalating agents” (J Med Chem, 1978).

What was measured:
[1] = system: P388; experiment: Antitumor activity against mouse P388 cells allografted in ip dosed BDF1 mouse at optimum dose administered qd for 5 days relative to control; type: functional
[2] = Lipophilic-hydrophilic balance, Rm of the compound by reversed-phase chromatographic analysis; type: physicochemical
[3] = (§1) Toxicity in ip dosed BDF1 mouse allografted with mouse P388 cells administered qd for 5 days; type: organism-based; conditions: BDF1, mouse, in vivo
[4] = system: Pseudoalteromonas; experiment: Induction of bacteriophage PM2 closed circular DNA unwinding assessed as drug per nucleic acid phosphate ratio at equivalence by viscometric analysis
[5] = species on record: Bos taurus; experiment: Displacement of ethidium bromide from calf thymus DNA by spectrofluorometric analysis
[6] = system: Mus musculus; experiment: (§2) Toxicity in ip dosed BDF1 mouse allografted with mouse L1210 cells administered qd for 5 days; type: organism-based; conditions: mouse, in vivo, 120 h
[7] = system: Mus musculus; experiment: as §1; type: organism-based; conditions: mouse, in vivo, 120 h
[8] = system: L1210; experiment: Antitumor activity against mouse L1210 cells allografted in ip dosed BDF1 mouse at optimum dose administered qd for 5 days relative to control; type: functional
[9] = as §2; type: organism-based; conditions: BDF1, mouse, in vivo

Structure (SMILES): Cl.c1ccc(OCCCOc2ccccc2Nc2c3ccccc3nc3ccccc23)c(Nc2c3ccccc3nc3ccccc23)c1
- ILS [1]: >25%
- Rm [2]: 0.28
- MTD at 120 h [3]: 50 mg/kg/day
- Ratio [4]: 0.072
- C50 [5]: 0.6 µM

Structure (SMILES): COc1cc(NS(C)(=O)=O)ccc1Nc1c2ccccc2nc2ccccc12 [AMSACRINE]
- Rm [2]: 0.18
- Activity [6]: 6.7 mg/kg/day
- Activity [7]: 6.7 mg/kg/day
- Ratio [4]: 0.082
- ILS [8]: 114%
- C50 [5]: 10.8 µM

Structure (SMILES): Br.O=S(=O)(CCCCNc1ccnc2ccccc12)Nc1ccc(Nc2c3ccccc3nc3ccccc23)cc1
- ILS [1]: 76%
- Rm [2]: -0.31
- Activity [6]: 75 mg/kg/day
- Activity [7]: 75 mg/kg/day
- Ratio [4]: 0.091
- ILS [8]: 29%
- C50 [5]: 0.18 µM

Structure (SMILES): Cl.O.O=S(=O)(CCCNc1c2ccccc2nc2ccccc12)Nc1ccc(Nc2c3ccccc3nc3ccccc23)cc1
- ILS [1]: 38%
- Rm [2]: -0.25
- MTD at 120 h [9]: 300 mg/kg/day
- Activity [7]: 300 mg/kg/day
- ILS [8]: >25%
- C50 [5]: 0.1 µM

Structure (SMILES): CCOc1cc(NS(C)(=O)=O)ccc1Nc1c2ccccc2nc2ccccc12
- ILS [1]: 218%
- Rm [2]: 0.37
- Activity [6]: 60 mg/kg/day
- Activity [7]: 60 mg/kg/day
- ILS [8]: 71%
- C50 [5]: 19 µM

Structure (SMILES): COc1cc(NS(=O)(=O)CCCS(=O)(=O)Nc2ccc(Nc3c4ccccc4nc4ccccc34)c(OC)c2)ccc1Nc1c2ccccc2nc2ccccc12.CS(=O)(=O)O.O
- Rm [2]: 0.22
- Activity [6]: 50 mg/kg/day
- Activity [7]: 50 mg/kg/day

Structure (SMILES): Cl.O.O=S(=O)(CCNc1ncnc2ccccc12)Nc1ccc(Nc2c3ccccc3nc3ccccc23)cc1
- ILS [1]: 100%
- Rm [2]: -0.53
- Activity [6]: 50 mg/kg/day
- Activity [7]: 100 mg/kg/day
- ILS [8]: 57%
- C50 [5]: 0.67 µM

Structure (SMILES): Cl.O.O=S(=O)(CCNc1c2ccccc2nc2ccccc12)Nc1ccc(Nc2c3ccccc3nc3ccccc23)cc1
- ILS [1]: 31%
- Rm [2]: -0.17
- MTD at 120 h [9]: 60 mg/kg/day
- Activity [7]: 60 mg/kg/day
- Ratio [4]: 0.078
- ILS [8]: >25%
- C50 [5]: 0.09 µM

Structure (SMILES): Cl.O.O=S(=O)(CCCS(=O)(=O)Nc1ccc(Nc2c3ccccc3nc3ccccc23)cc1)Nc1ccc(Nc2c3ccccc3nc3ccccc23)cc1
- ILS [1]: 29%
- Rm [2]: -0.16
- MTD at 120 h [9]: 250 mg/kg/day
- Activity [7]: 250 mg/kg/day
- ILS [8]: >25%
- C50 [5]: 0.064 µM

Structure (SMILES): COc1cc(NS(=O)(=O)CCCCCS(=O)(=O)Nc2ccc(Nc3c4ccccc4nc4ccccc34)c(OC)c2)ccc1Nc1c2ccccc2nc2ccccc12.CS(=O)(=O)O.O
- ILS [1]: 71%
- Rm [2]: 0.35
- Activity [6]: 400 mg/kg/day
- Activity [7]: 400 mg/kg/day
- ILS [8]: 36%
- C50 [5]: 0.14 µM

Structure (SMILES): Br.O.O=S(=O)(CCNc1ccnc2ccccc12)Nc1ccc(Nc2c3ccccc3nc3ccccc23)cc1
- ILS [1]: 36%
- Rm [2]: -0.54
- MTD at 120 h [9]: 90 mg/kg/day
- Activity [7]: 90 mg/kg/day
- Ratio [4]: 0.12
- ILS [8]: >25%
- C50 [5]: 0.12 µM

Structure (SMILES): COc1cc(NS(=O)(=O)CCCCS(=O)(=O)Nc2ccc(Nc3c4ccccc4nc4ccccc34)c(OC)c2)ccc1Nc1c2ccccc2nc2ccccc12
- ILS [1]: 39%
- Rm [2]: 0.27
- Activity [6]: > 500 mg/kg/day
- Activity [7]: > 500 mg/kg/day
- Ratio [4]: 0.041
- ILS [8]: 26%
- C50 [5]: 0.057 µM

Structure (SMILES): CS(=O)(=O)Nc1ccc(Nc2c3ccccc3nc3ccccc23)cc1
- ILS [1]: 223%
- Rm [2]: 0
- Activity [6]: 45 mg/kg/day
- Activity [7]: 45 mg/kg/day
- ILS [8]: 107%
- C50 [5]: 5.9 µM

Structure (SMILES): COc1cc(NS(=O)(=O)CCCCS(=O)(=O)Nc2ccc(Nc3ccnc4ccccc34)c(OC)c2)ccc1Nc1ccnc2ccccc12.Cl.O
- ILS [1]: >25%
- Rm [2]: -0.28
- MTD at 120 h [3]: 12 mg/kg/day
- Ratio [4]: 0.15
- C50 [5]: 7.5 µM

Structure (SMILES): Cl.O.O=S(=O)(CCCCCNc1c2ccccc2nc2ccccc12)Nc1ccc(Nc2c3ccccc3nc3ccccc23)cc1
- ILS [1]: 63%
- Rm [2]: -0.04
- Activity [6]: 250 mg/kg/day
- Activity [7]: 250 mg/kg/day
- ILS [8]: 35%
- C50 [5]: 0.17 µM

Structure (SMILES): Cl.O.O=S(=O)(CCCCCS(=O)(=O)Nc1ccc(Nc2c3ccccc3nc3ccccc23)cc1)Nc1ccc(Nc2c3ccccc3nc3ccccc23)cc1
- ILS [1]: 49%
- Rm [2]: -0.02
- Activity [6]: 210 mg/kg/day
- Activity [7]: 210 mg/kg/day
- ILS [8]: 28%
- C50 [5]: 0.07 µM

Structure (SMILES): Cl.O.O=S(=O)(CCCCCNc1ccnc2ccccc12)Nc1ccc(Nc2c3ccccc3nc3ccccc23)cc1
- ILS [1]: 37%
- Rm [2]: -0.24
- MTD at 120 h [9]: 200 mg/kg/day
- Activity [7]: 200 mg/kg/day
- ILS [8]: >25%
- C50 [5]: 0.4 µM

Structure (SMILES): Br.O.O=S(=O)(CCCCCCNc1ccnc2ccccc12)Nc1ccc(Nc2c3ccccc3nc3ccccc23)cc1
- ILS [1]: >25%
- Rm [2]: -0.09
- MTD at 120 h [9]: 75 mg/kg/day
- MTD at 120 h [3]: 75 mg/kg/day
- ILS [8]: >25%
- C50 [5]: 0.65 µM

Structure (SMILES): c1ccc(Nc2c3ccccc3nc3ccccc23)cc1
- ILS [1]: >25%
- Rm [2]: 0.43
- MTD at 120 h [9]: 105 mg/kg/day
- MTD at 120 h [3]: 105 mg/kg/day
- ILS [8]: >25%
- C50 [5]: 13 µM

Structure (SMILES): CS(=O)(=O)Nc1ccc(Nc2ccnc3ccccc23)cc1
- ILS [1]: >25%
- Rm [2]: -0.39
- MTD at 120 h [9]: 200 mg/kg/day
- MTD at 120 h [3]: 200 mg/kg/day
- ILS [8]: >25%
- C50 [5]: 490 µM

Structure (SMILES): Cl.O.O=S(=O)(CCCCNc1c2ccccc2nc2ccccc12)Nc1ccc(Nc2c3ccccc3nc3ccccc23)cc1
- ILS [1]: >25%
- Rm [2]: -0.1
- MTD at 120 h [3]: 37 mg/kg/day
- Ratio [4]: 0.066
- C50 [5]: 0.09 µM
